Assay results: ChEMBL document CHEMBL1201862, “PubChem BioAssay data set” (2004)
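Briefly, cells in 96-well plates were exposed to five compound concentrations for 48 h, and endpoints were estimated by linear interpolation. GI50: concentration for 50% inhibition of growth.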 Active and inactive are the calls of the source. No stated cut-off is given here; in the data, active = GI50 up to about 1.1 µM and inactive = higher.

How the values were obtained:
Test in all cases: NCI anticancer screen, dose series, 48 h
786-0 = tested on: 786-0
SK-OV-3 = tested on: SK-OV-3
NCI-H23 = tested on: NCI-H23
OVCAR-3 = tested on: OVCAR-3
OVCAR-8 = tested on: OVCAR-8
MDA-MB-435 = tested on: MDA-MB-435
UACC-62 = tested on: UACC-62
U-251 = tested on: U-251
ACHN = tested on: ACHN
A498 = tested on: A498
IGROV-1 = tested on: IGROV-1
KM12 = tested on: KM12
CAKI-1 = tested on: CAKI-1
LOX IMVI = tested on: LOX IMVI
SK-MEL-5 = tested on: SK-MEL-5
MDA-MB-231 = tested on: MDA-MB-231
SK-MEL-2 = tested on: SK-MEL-2
T47D = tested on: T47D
UACC-257 = tested on: UACC-257
MDA-N = tested on: MDA-N
HCT-15 = tested on: HCT-15
UO-31 = tested on: UO-31
SR = tested on: SR
NCI-H522 = tested on: NCI-H522
M14 = tested on: M14
A549 = tested on: A549
COLO 205 = tested on: COLO 205
SF-295 = tested on: SF-295
SN12C = tested on: SN12C
RPMI-8226 = tested on: RPMI-8226
HOP-92 = tested on: HOP-92
SK-MEL-28 = tested on: SK-MEL-28
HT-29 = tested on: HT-29
RXF 393 = tested on: RXF 393
NCI-H226 = tested on: NCI-H226
HOP-62 = tested on: HOP-62
OVCAR-5 = tested on: OVCAR-5
SF-268 = tested on: SF-268
NCI/ADR-RES = tested on: NCI/ADR-RES
MCF7 = tested on: MCF7
MOLT-4 = tested on: MOLT-4
Hs-578T = tested on: Hs-578T
Malme-3M = tested on: Malme-3M
PC-3 = tested on: PC-3
OVCAR-4 = tested on: OVCAR-4
HCT-116 = tested on: HCT-116
DU-145 = tested on: DU-145
HL-60 = tested on: HL-60
SNB-19 = tested on: SNB-19
BT-549 = tested on: BT-549
SW-620 = tested on: SW-620
K562 = tested on: K562
EKVX = tested on: EKVX
NCI-H460 = tested on: NCI-H460
HCC 2998 = tested on: HCC 2998
CCRF-CEM = tested on: CCRF-CEM
SNB-75 = tested on: SNB-75
SF-539 = tested on: SF-539
TK-10 = tested on: TK-10

With `O=P(OCc1ccccc1)(OCc1ccccc1)C(O)/C=C/c1ccccc1` (stereo not given) the GI50 (786-0) was 17.7 µM (inactive), the GI50 (SK-OV-3) was 45.1 µM (inactive) and the GI50 (NCI-H23) was 20.2 µM (inactive). For the same compound, the GI50 (OVCAR-3) was 20.9 µM (inactive), the GI50 (OVCAR-8) was 24 µM (inactive) and the GI50 (MDA-MB-435) was 17.3 µM (inactive). The GI50 (UACC-62) was 15.8 µM (inactive), the GI50 (U-251) was 13.1 µM (inactive) and the GI50 (ACHN) was 29.1 µM (inactive). For the same compound, the GI50 (A498) was 17.9 µM (inactive), the GI50 (IGROV-1) was 19.6 µM (inactive) and the GI50 (KM12) was 19.8 µM (inactive). For the same compound, the GI50 (CAKI-1) was 35.7 µM (inactive), the GI50 (LOX IMVI) was 14.9 µM (inactive) and the GI50 (SK-MEL-5) was 19.3 µM (inactive). For the same compound, the GI50 (MDA-MB-231) was 22.3 µM (inactive), the GI50 (SK-MEL-2) was 20.7 µM (inactive) and the GI50 (T47D) was 33.7 µM (inactive). For the same compound, the GI50 (UACC-257) was 17 µM (inactive), the GI50 (MDA-N) was 17.3 µM (inactive) and the GI50 (HCT-15) was 36.8 µM. For the same compound, the GI50 (UO-31) was 26.6 µM (inactive), the GI50 (SR) was 19.9 µM (inactive) and the GI50 (NCI-H522) was 23.8 µM (inactive). For the same compound, the GI50 (M14) was 18.1 µM (inactive), the GI50 (A549) was 32.9 µM (inactive) and the GI50 (COLO 205) was 21.3 µM (inactive). The GI50 (SF-295) was 20.3 µM (inactive), the GI50 (SN12C) was 19.8 µM (inactive) and the GI50 (RPMI-8226) was 23.6 µM (inactive). For the same compound, the GI50 (HOP-92) was 19.4 µM (inactive), the GI50 (SK-MEL-28) was 37.9 µM (inactive) and the GI50 (HT-29) was 21.3 µM (inactive). The GI50 (RXF 393) was 33.8 µM (inactive), the GI50 (NCI-H226) was 34.8 µM (inactive) and the GI50 (HOP-62) was 21.8 µM (inactive). The GI50 (OVCAR-5) was 30.6 µM (inactive), the GI50 (SF-268) was 16.9 µM (inactive) and the GI50 (NCI/ADR-RES) was 26.5 µM (inactive). The GI50 (MCF7) was 27.6 µM (inactive), the GI50 (MOLT-4) was 21.6 µM (inactive) and the GI50 (Hs-578T) was 17 µM (inactive). The GI50 (Malme-3M) was 19.6 µM (inactive), the GI50 (PC-3) was 28 µM (inactive) and the GI50 (OVCAR-4) was 21.4 µM (inactive). The GI50 (HCT-116) was 17.7 µM (inactive), the GI50 (DU-145) was 42.9 µM (inactive) and the GI50 (HL-60) was 19.8 µM (inactive). For the same compound, the GI50 (SNB-19) was 23 µM (inactive), the GI50 (BT-549) was 28.2 µM (inactive) and the GI50 (SW-620) was 26.1 µM (inactive). For the same compound, the GI50 (K562) was 34.2 µM (inactive) and the GI50 (EKVX) was 33.3 µM (inactive).
With `Cc1ccc(Cc2nnc(S)[nH]2)cc1` the GI50 (786-0) was 75.3 µM (inactive), the GI50 (SK-OV-3) was > 100 µM (inactive) and the GI50 (NCI-H23) was 81.3 µM (inactive). The GI50 (OVCAR-3) was > 100 µM (inactive), the GI50 (NCI-H460) was 78.2 µM (inactive) and the GI50 (OVCAR-8) was 79.4 µM (inactive). The GI50 (MDA-MB-435) was > 100 µM (inactive), the GI50 (UACC-62) was > 100 µM (inactive) and the GI50 (HCC 2998) was > 100 µM (inactive). The GI50 (U-251) was > 100 µM (inactive), the GI50 (ACHN) was 63.7 µM (inactive) and the GI50 (A498) was > 100 µM (inactive). For the same compound, the GI50 (CCRF-CEM) was 56.6 µM (inactive), the GI50 (IGROV-1) was 50.8 µM (inactive) and the GI50 (SNB-75) was > 100 µM (inactive). The GI50 (KM12) was 79.1 µM (inactive), the GI50 (CAKI-1) was > 100 µM (inactive) and the GI50 (LOX IMVI) was 74 µM (inactive). For the same compound, the GI50 (SK-MEL-5) was 74.6 µM (inactive), the GI50 (MDA-MB-231) was > 100 µM (inactive) and the GI50 (SK-MEL-2) was > 100 µM (inactive). For the same compound, the GI50 (T47D) was 40.8 µM (inactive), the GI50 (UACC-257) was > 100 µM (inactive) and the GI50 (MDA-N) was > 100 µM (inactive). For the same compound, the GI50 (HCT-15) was over 100 µM, the GI50 (UO-31) was 79.8 µM (inactive) and the GI50 (SR) was > 100 µM (inactive). For the same compound, the GI50 (M14) was > 100 µM (inactive), the GI50 (A549) was 84.7 µM (inactive) and the GI50 (COLO 205) was > 100 µM (inactive). For the same compound, the GI50 (SF-295) was 52.2 µM (inactive), the GI50 (SN12C) was > 100 µM (inactive) and the GI50 (HOP-92) was > 100 µM (inactive). The GI50 (SK-MEL-28) was > 100 µM (inactive), the GI50 (HT-29) was > 100 µM (inactive) and the GI50 (NCI-H226) was > 100 µM (inactive). For the same compound, the GI50 (HOP-62) was 61.9 µM (inactive), the GI50 (OVCAR-5) was > 100 µM (inactive) and the GI50 (NCI/ADR-RES) was 77.6 µM (inactive). The GI50 (MCF7) was > 100 µM (inactive), the GI50 (MOLT-4) was > 100 µM (inactive) and the GI50 (Hs-578T) was 47.2 µM (inactive). The GI50 (Malme-3M) was > 100 µM (inactive), the GI50 (PC-3) was > 100 µM (inactive) and the GI50 (SF-539) was > 100 µM (inactive). For the same compound, the GI50 (OVCAR-4) was 32.3 µM (inactive), the GI50 (HCT-116) was 54.8 µM (inactive) and the GI50 (DU-145) was 70.8 µM (inactive). For the same compound, the GI50 (HL-60) was 25.8 µM (inactive), the GI50 (SNB-19) was > 100 µM (inactive) and the GI50 (TK-10) was > 100 µM (inactive). For the same compound, the GI50 (BT-549) was > 100 µM (inactive), the GI50 (SW-620) was > 100 µM (inactive) and the GI50 (K562) was 94.8 µM (inactive). The GI50 (EKVX) was > 100 µM (inactive).
`CC(C)(C)C(=O)CP(=O)(O)O` was tested, and the GI50 (786-0) was > 100 µM (inactive), the GI50 (SK-OV-3) was > 100 µM (inactive) and the GI50 (NCI-H23) was > 100 µM (inactive). The GI50 (OVCAR-3) was > 100 µM (inactive), the GI50 (NCI-H460) was > 100 µM (inactive) and the GI50 (OVCAR-8) was > 100 µM (inactive). For the same compound, the GI50 (MDA-MB-435) was > 100 µM (inactive), the GI50 (UACC-62) was > 100 µM (inactive) and the GI50 (U-251) was > 100 µM (inactive). For the same compound, the GI50 (ACHN) was > 100 µM (inactive), the GI50 (A498) was > 100 µM (inactive) and the GI50 (CCRF-CEM) was > 100 µM (inactive). The GI50 (IGROV-1) was > 100 µM (inactive), the GI50 (SNB-75) was > 100 µM (inactive) and the GI50 (KM12) was > 100 µM (inactive). The GI50 (CAKI-1) was > 100 µM (inactive), the GI50 (LOX IMVI) was > 100 µM (inactive) and the GI50 (SK-MEL-5) was > 100 µM (inactive). The GI50 (MDA-MB-231) was > 100 µM (inactive), the GI50 (SK-MEL-2) was > 100 µM (inactive) and the GI50 (T47D) was > 100 µM (inactive). For the same compound, the GI50 (UACC-257) was > 100 µM (inactive), the GI50 (MDA-N) was > 100 µM (inactive) and the GI50 (HCT-15) was over 100 µM. For the same compound, the GI50 (SR) was > 100 µM (inactive), the GI50 (NCI-H522) was > 100 µM (inactive) and the GI50 (M14) was > 100 µM (inactive). For the same compound, the GI50 (A549) was > 100 µM (inactive), the GI50 (COLO 205) was > 100 µM (inactive) and the GI50 (SF-295) was > 100 µM (inactive). The GI50 (SN12C) was > 100 µM (inactive), the GI50 (RPMI-8226) was > 100 µM (inactive) and the GI50 (HOP-92) was > 100 µM (inactive). The GI50 (SK-MEL-28) was > 100 µM (inactive), the GI50 (HT-29) was > 100 µM (inactive) and the GI50 (RXF 393) was > 100 µM (inactive). For the same compound, the GI50 (NCI-H226) was > 100 µM (inactive), the GI50 (HOP-62) was > 100 µM (inactive) and the GI50 (OVCAR-5) was > 100 µM (inactive). For the same compound, the GI50 (SF-268) was > 100 µM (inactive), the GI50 (NCI/ADR-RES) was > 100 µM (inactive) and the GI50 (MCF7) was > 100 µM (inactive). The GI50 (MOLT-4) was > 100 µM (inactive), the GI50 (Hs-578T) was > 100 µM (inactive) and the GI50 (Malme-3M) was > 100 µM (inactive). For the same compound, the GI50 (PC-3) was > 100 µM (inactive), the GI50 (SF-539) was > 100 µM (inactive) and the GI50 (OVCAR-4) was > 100 µM (inactive). The GI50 (HCT-116) was > 100 µM (inactive), the GI50 (DU-145) was > 100 µM (inactive) and the GI50 (HL-60) was > 100 µM (inactive). For the same compound, the GI50 (SNB-19) was > 100 µM (inactive), the GI50 (TK-10) was > 100 µM (inactive) and the GI50 (BT-549) was > 100 µM (inactive). The GI50 (SW-620) was > 100 µM (inactive), the GI50 (K562) was > 100 µM (inactive) and the GI50 (EKVX) was > 100 µM (inactive).
